Reference: PubChem BioAssay (NCI)
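Results reflect a 48-hour exposure of cells in 96-well plates to compound at five concentrations. Here, GI50 denotes the concentration required for 50% inhibition of growth. TGI is the concentration that stops growth completely.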

Experiments:
Assay in all cases: DTP human tumour cell line panel, 48 h
HCT-116 colon = tested on: HCT-116 colon
EKVX NSCLC = tested on: EKVX NSCLC
LOX IMVI melanoma = tested on: LOX IMVI melanoma
RPMI-8226 leukemia = tested on: RPMI-8226 leukemia
NCI-H460 lung = tested on: NCI-H460 lung
U251 CNS = tested on: U251 CNS
HT29 colon = tested on: HT29 colon
SK-OV-3 ovarian = tested on: SK-OV-3 ovarian
OVCAR-3 ovarian = tested on: OVCAR-3 ovarian
CCRF-CEM leukemia = tested on: CCRF-CEM leukemia

SMILES: C/C(=N\NC(=S)N(C)C)c1nc2ncccc2[nH]1
- TGI (HCT-116 colon): > 100 µM
- TGI (EKVX NSCLC): > 100 µM
- TGI (LOX IMVI melanoma): > 100 µM
- TGI (RPMI-8226 leukemia): > 100 µM
- TGI (NCI-H460 lung): > 100 µM
- TGI (U251 CNS): > 100 µM
- TGI (HT29 colon): > 100 µM
- TGI (SK-OV-3 ovarian): 5.53 µM

SMILES: NNC(=O)CCSc1ccccc1
- TGI (HCT-116 colon): > 100 µM
- TGI (EKVX NSCLC): > 100 µM
- TGI (OVCAR-3 ovarian): > 100 µM
- TGI (LOX IMVI melanoma): > 100 µM
- TGI (RPMI-8226 leukemia): > 100 µM
- TGI (NCI-H460 lung): > 100 µM
- TGI (U251 CNS): > 100 µM
- TGI (CCRF-CEM leukemia): > 100 µM
- TGI (HT29 colon): > 100 µM
- TGI (SK-OV-3 ovarian): > 100 µM

SMILES: CCCn1cc2c(SC)nc(SC)nc2n1
- TGI (HCT-116 colon): > 100 µM
- TGI (EKVX NSCLC): > 100 µM
- TGI (LOX IMVI melanoma): > 100 µM
- TGI (RPMI-8226 leukemia): > 100 µM
- TGI (NCI-H460 lung): > 100 µM
- TGI (U251 CNS): > 100 µM
- TGI (CCRF-CEM leukemia): > 100 µM
- TGI (HT29 colon): > 100 µM

SMILES: COc1ccc(C(O)(c2ccccc2)c2nccc3ccccc23)cc1 (configuration not stated)
- TGI (HCT-116 colon): > 100 µM
- TGI (EKVX NSCLC): 36.9 µM
- TGI (OVCAR-3 ovarian): 6.32 µM
- TGI (LOX IMVI melanoma): > 100 µM
- TGI (RPMI-8226 leukemia): > 100 µM
- TGI (NCI-H460 lung): 38.9 µM
- TGI (U251 CNS): > 100 µM
- TGI (CCRF-CEM leukemia): 8.98 µM
- TGI (HT29 colon): > 100 µM
- TGI (SK-OV-3 ovarian): > 100 µM

SMILES: O=C(Nc1ccc(-n2cc(-c3ccncc3)c(-c3ccc(O)c(Cl)c3)n2)cc1)Nc1ccc(Cl)c(C(F)(F)F)c1
- GI50 (HCT-116 colon): 3.15 µM
- TGI (HCT-116 colon): 10.8 µM
- GI50 (EKVX NSCLC): 3.21 µM
- TGI (EKVX NSCLC): 25.4 µM
- GI50 (OVCAR-3 ovarian): 3.23 µM
- TGI (OVCAR-3 ovarian): 10.9 µM
- GI50 (LOX IMVI melanoma): 2.14 µM
- TGI (LOX IMVI melanoma): 18 µM
- GI50 (RPMI-8226 leukemia): 1.99 µM
- TGI (RPMI-8226 leukemia): 5.32 µM
- GI50 (NCI-H460 lung): 3.33 µM
- TGI (NCI-H460 lung): 11.4 µM
- GI50 (U251 CNS): 2.53 µM
- TGI (U251 CNS): 10.1 µM
- GI50 (CCRF-CEM leukemia): 3.2 µM
- TGI (CCRF-CEM leukemia): 22.3 µM
- GI50 (HT29 colon): 10.2 µM
- TGI (HT29 colon): 25.2 µM

SMILES: c1ccc(C(NC2=NCCO2)c2ccccc2)cc1
- TGI (HCT-116 colon): > 10 µM
- TGI (EKVX NSCLC): > 10 µM
- TGI (OVCAR-3 ovarian): > 10 µM
- TGI (LOX IMVI melanoma): > 10 µM
- TGI (RPMI-8226 leukemia): > 10 µM
- TGI (NCI-H460 lung): > 10 µM
- TGI (U251 CNS): > 10 µM
- TGI (CCRF-CEM leukemia): > 10 µM
- TGI (HT29 colon): > 10 µM
- TGI (SK-OV-3 ovarian): > 10 µM

SMILES: O=C(O)CCc1nc2ccccc2[nH]1
- TGI (HCT-116 colon): > 100 µM
- TGI (EKVX NSCLC): > 100 µM
- TGI (OVCAR-3 ovarian): > 100 µM
- TGI (LOX IMVI melanoma): > 100 µM
- TGI (RPMI-8226 leukemia): > 100 µM
- TGI (NCI-H460 lung): > 100 µM
- TGI (U251 CNS): > 100 µM
- TGI (CCRF-CEM leukemia): > 100 µM
- TGI (HT29 colon): > 100 µM
- TGI (SK-OV-3 ovarian): > 100 µM

SMILES: OCCCNc1ncnc2[nH]ncc12
- TGI (HCT-116 colon): > 100 µM
- TGI (EKVX NSCLC): > 100 µM
- TGI (OVCAR-3 ovarian): > 100 µM
- TGI (LOX IMVI melanoma): > 100 µM
- TGI (RPMI-8226 leukemia): > 100 µM
- TGI (NCI-H460 lung): > 100 µM
- TGI (U251 CNS): > 100 µM
- TGI (CCRF-CEM leukemia): > 100 µM
- TGI (HT29 colon): > 100 µM
- TGI (SK-OV-3 ovarian): > 100 µM

SMILES: CCOC(=O)C(Cc1cn(C(C)=O)c2ccccc12)P(=O)(OCC)OCC (configuration not stated)
- TGI (HCT-116 colon): > 100 µM
- TGI (OVCAR-3 ovarian): > 100 µM
- TGI (LOX IMVI melanoma): > 100 µM
- TGI (RPMI-8226 leukemia): > 100 µM
- TGI (NCI-H460 lung): > 100 µM
- TGI (U251 CNS): > 100 µM
- TGI (HT29 colon): > 100 µM
- TGI (SK-OV-3 ovarian): > 100 µM

SMILES: C/C(=N\NC(=S)NCCCCNC(=S)N/N=C(\C)c1ccccn1)c1ccccc1
- TGI (HCT-116 colon): 81.5 µM
- TGI (EKVX NSCLC): > 100 µM
- TGI (OVCAR-3 ovarian): > 65.2 µM
- TGI (LOX IMVI melanoma): 14.3 µM
- TGI (RPMI-8226 leukemia): 14.3 µM
- TGI (NCI-H460 lung): 4.71 µM
- TGI (U251 CNS): 15.6 µM
- TGI (HT29 colon): > 100 µM
- TGI (SK-OV-3 ovarian): 38.9 µM

SMILES: Cc1[nH]c(=O)[nH]c(=O)c1/C=C/C(=O)NC(CO)CS(=O)Cc1ccccc1 (configuration not stated)
- TGI (HCT-116 colon): > 300 µM
- TGI (EKVX NSCLC): > 300 µM
- TGI (OVCAR-3 ovarian): > 300 µM
- TGI (LOX IMVI melanoma): > 300 µM
- TGI (RPMI-8226 leukemia): > 300 µM
- TGI (NCI-H460 lung): > 300 µM
- TGI (U251 CNS): > 300 µM
- TGI (CCRF-CEM leukemia): > 300 µM
- TGI (HT29 colon): > 300 µM
- TGI (SK-OV-3 ovarian): > 300 µM

SMILES: CC(C)C(=O)CC(c1ccc(Cl)cc1)N1N=C(C(C)C)CC1c1ccc(Cl)cc1 (configuration not stated)
- TGI (HCT-116 colon): > 100 µM
- TGI (EKVX NSCLC): > 100 µM
- GI50 (OVCAR-3 ovarian): 45.6 µM
- TGI (OVCAR-3 ovarian): > 100 µM
- TGI (LOX IMVI melanoma): > 100 µM
- TGI (RPMI-8226 leukemia): > 100 µM
- TGI (NCI-H460 lung): > 100 µM
- GI50 (U251 CNS): 53.3 µM
- TGI (U251 CNS): > 100 µM
- TGI (CCRF-CEM leukemia): > 69.8 µM
- TGI (HT29 colon): > 100 µM
